# Experimental data from patent publication US12435059B2, “AMP-activated protein kinase inhibitors and methods of making and using the same” (The Regents of the University of Colorado, priority 2019, dated 2025).
# Assays:
# AMPK(α2) [1] = biological target: T1, AMPK(α2) (Homo sapiens (Human), UniProt P54646); assay: LANCE Eu TR-FRET recombinant kinase assay, AMPK(α2); assay type: biochemical; conditions: mean±S.D. (n=3); ATP 20 μM
# Method: Assays were performed at 25° C. in a reaction mixture consisting of 2.5 μL serially diluted inhibitor solution, 2.5 μL kinase, 2.5 μL ATP and 2.5 μL substrate. Reagents were incubated for 1 hr before the reaction was halted through the addition of EDTA (10 mM) after which Eu anti-phospho-CREB (Ser133) antibody (PerkinElmer) was added at a final concentration of 2 nM for 1 hr. […] (n=3)).
# 468 kinases [2] = biological target: 468 kinases (Homo sapiens, UniProt O14730); assay: biochemical; assay type: binding; conditions: RIOK3; read-out: % Inhibition @ 100 nM
# 468 kinases [3] = biological target: 468 kinases (Homo sapiens, UniProt O14936); assay: biochemical; assay type: binding; conditions: CASK; read-out: % Inhibition @ 100 nM
# 468 kinases [4] = biological target: 468 kinases (Homo sapiens, UniProt O15075); assay: biochemical; assay type: binding; conditions: DCAMKL1; read-out: % Inhibition @ 100 nM
# 468 kinases [5] = biological target: 468 kinases (Homo sapiens, UniProt O95835); assay: biochemical; assay type: binding; conditions: LATS1; read-out: % Inhibition @ 100 nM
# 468 kinases [6] = biological target: 468 kinases (Homo sapiens, UniProt P08581, M1250T); assay: biochemical; assay type: binding; conditions: MET(M1250T); read-out: % Inhibition @ 100 nM
# 468 kinases [7] = biological target: 468 kinases (Homo sapiens, UniProt P11362); assay: biochemical; assay type: binding; conditions: FGFR1; read-out: % Inhibition @ 100 nM
# 468 kinases [8] = biological target: 468 kinases (Homo sapiens, UniProt P15056, V600E); assay: biochemical; assay type: binding; conditions: BRAF(V600E); read-out: % Inhibition @ 100 nM
# 468 kinases [9] = biological target: 468 kinases (Homo sapiens, UniProt P31152); assay: biochemical; assay type: binding; conditions: ERK4; read-out: % Inhibition @ 100 nM
# 468 kinases [10] = biological target: 468 kinases (Homo sapiens, UniProt P36888, N841I); assay: biochemical; assay type: binding; conditions: FLT3(N841I); read-out: % Inhibition @ 100 nM
# 468 kinases [11] = biological target: 468 kinases (Homo sapiens, UniProt P36897); assay: biochemical; assay type: binding; conditions: TGFBR1; read-out: % Inhibition @ 100 nM
# 468 kinases [12] = biological target: 468 kinases (Homo sapiens, UniProt P42345); assay: biochemical; assay type: binding; conditions: MTOR; read-out: % Inhibition @ 100 nM
# 468 kinases [13] = biological target: 468 kinases (Homo sapiens, UniProt P49336); assay: biochemical; assay type: binding; conditions: CDK8; read-out: % Inhibition @ 100 nM
# 468 kinases [14] = biological target: 468 kinases (Homo sapiens, UniProt P49841); assay: biochemical; assay type: binding; conditions: GSK3B; read-out: % Inhibition @ 100 nM
# 468 kinases [15] = biological target: 468 kinases (Homo sapiens, UniProt P54753); assay: biochemical; assay type: binding; conditions: EPHB3; read-out: % Inhibition @ 100 nM
# 468 kinases [16] = biological target: 468 kinases (Homo sapiens, UniProt P54764); assay: biochemical; assay type: binding; conditions: EPHA4; read-out: % Inhibition @ 100 nM
# 468 kinases [17] = biological target: 468 kinases (Homo sapiens, UniProt P78362); assay: biochemical; assay type: binding; conditions: SRPK2; read-out: % Inhibition @ 100 nM
# 468 kinases [18] = biological target: 468 kinases (Homo sapiens, UniProt Q07002); assay: biochemical; assay type: binding; conditions: PCTK3; read-out: % Inhibition @ 100 nM
# 468 kinases [19] = biological target: 468 kinases (Homo sapiens, UniProt Q13043); assay: biochemical; assay type: binding; conditions: MST1; read-out: % Inhibition @ 100 nM
# 468 kinases [20] = biological target: 468 kinases (Homo sapiens, UniProt Q13627); assay: biochemical; assay type: binding; conditions: DYRK1A; read-out: % Inhibition @ 100 nM
# 468 kinases [21] = biological target: 468 kinases (Homo sapiens, UniProt Q15759); assay: biochemical; assay type: binding; conditions: p38-beta; read-out: % Inhibition @ 100 nM
# 468 kinases [22] = biological target: 468 kinases (Homo sapiens, UniProt Q8TDC3); assay: biochemical; assay type: binding; conditions: BRSK1; read-out: % Inhibition @ 100 nM
# 468 kinases [23] = biological target: 468 kinases (Homo sapiens, UniProt Q8WXR4); assay: biochemical; assay type: binding; conditions: MYO3B; read-out: % Inhibition @ 100 nM
# 468 kinases [24] = biological target: 468 kinases (Homo sapiens, UniProt Q99759); assay: biochemical; assay type: binding; conditions: MAP3K3; read-out: % Inhibition @ 100 nM
# 468 kinases [25] = biological target: 468 kinases (Homo sapiens, UniProt Q9BXA7); assay: biochemical; assay type: binding; conditions: TSSK1B; read-out: % Inhibition @ 100 nM
# 468 kinases [26] = biological target: 468 kinases (Homo sapiens, UniProt Q9H0K1); assay: biochemical; assay type: binding; conditions: SIK2; read-out: % Inhibition @ 100 nM
# 468 kinases [27] = biological target: 468 kinases (Homo sapiens, UniProt Q9NRM7); assay: biochemical; assay type: binding; conditions: LATS2; read-out: % Inhibition @ 100 nM
# 468 kinases [28] = biological target: 468 kinases (Homo sapiens, UniProt Q9UBE8); assay: biochemical; assay type: binding; conditions: NLK; read-out: % Inhibition @ 100 nM
# 468 kinases [29] = biological target: 468 kinases (Mycobacterium tuberculosis, UniProt P9WI81); assay: biochemical; assay type: binding; conditions: PKNB(M.tuberculosis); read-out: % Inhibition @ 100 nM
# AMPK(α2) [30] = biological target: T1, AMPK(α2); assay: Kinome binding analysis at 100 nM, AMPK(α2); conditions: AMPK-alpha2
# VEGFR2 = VEGFR2 (Homo sapiens (Human), UniProt P35968); assay: Kinome binding analysis at 100 nM, VEGFR2; conditions: read-out: Percentage inhibition at 100 nM, VEGFR2
Compound,IC50 (AMPK(α2) [1]) [nM],inhibition at 0.1 µM (468 kinases [2]) [%],inhibition at 0.1 µM (468 kinases [3]) [%],inhibition at 0.1 µM (468 kinases [4]) [%],inhibition at 0.1 µM (468 kinases [5]) [%],inhibition at 0.1 µM (468 kinases [6]) [%],inhibition at 0.1 µM (468 kinases [7]) [%],inhibition at 0.1 µM (468 kinases [8]) [%],inhibition at 0.1 µM (468 kinases [9]) [%],inhibition at 0.1 µM (468 kinases [10]) [%],inhibition at 0.1 µM (468 kinases [11]) [%],inhibition at 0.1 µM (468 kinases [12]) [%],inhibition at 0.1 µM (468 kinases [13]) [%],inhibition at 0.1 µM (468 kinases [14]) [%],inhibition at 0.1 µM (468 kinases [15]) [%],inhibition at 0.1 µM (468 kinases [16]) [%],inhibition at 0.1 µM (468 kinases [17]) [%],inhibition at 0.1 µM (468 kinases [18]) [%],inhibition at 0.1 µM (468 kinases [19]) [%],inhibition at 0.1 µM (468 kinases [20]) [%],other results
"CCN(CC)CCNC(=O)c1c(C)[nH]c(/C=C2\C(=O)Nc3ccc(CCO)cc32)c1C [Compound No. 10, (Z)—N-(2-(Diethylamino)ethyl)-5-((5-(2-hydroxyethyl)-2-oxoindolin-3-ylidene)methyl)-2,4-dimethyl-1H-pyrrole-3-carboxamide]",20.5 ± 2.7,93.9,19,32,43,0,44,3,0,95.5,11,0,23,0,0,0,66,12,28,74,inhibition at 0.1 µM (468 kinases [21]): 80%; inhibition at 0.1 µM (468 kinases [22]): 29%; inhibition at 0.1 µM (468 kinases [23]): 0%; inhibition at 0.1 µM (468 kinases [24]): 59%; inhibition at 0.1 µM (468 kinases [25]): 0%; inhibition at 0.1 µM (468 kinases [26]): 0%; inhibition at 0.1 µM (468 kinases [27]): 4%; inhibition at 0.1 µM (468 kinases [28]): 5%; inhibition at 0.1 µM (468 kinases [29]): 0%; inhibition at 0.1 µM (AMPK(α2) [30]): 64%; inhibition at 0.1 µM (VEGFR2): 55%
"CCN(CC)CCNC(=O)c1c(C)[nH]c(/C=C2\C(=O)Nc3ccc(CCC(N)=O)cc32)c1C [Compound No. 16, (Z)-5-((5-(3-Amino-3-oxopropyl)-2-oxoindolin-3-ylidene)methyl)-N-(2-(diethylamino)ethyl)-2,4-dimethyl-1H-pyrrole-3-carboxamide]",60.7 ± 16.5,100,34,32,17,6,14,0,4,85,1,6,15,36,0,0,51,9,0,93.3,inhibition at 0.1 µM (468 kinases [21]): 0%; inhibition at 0.1 µM (468 kinases [22]): 27%; inhibition at 0.1 µM (468 kinases [23]): 0%; inhibition at 0.1 µM (468 kinases [24]): 48%; inhibition at 0.1 µM (468 kinases [25]): 4%; inhibition at 0.1 µM (468 kinases [26]): 15%; inhibition at 0.1 µM (468 kinases [27]): 13%; inhibition at 0.1 µM (468 kinases [28]): 8%; inhibition at 0.1 µM (468 kinases [29]): 16%; inhibition at 0.1 µM (AMPK(α2) [30]): 35%; inhibition at 0.1 µM (VEGFR2): 19%
